Measurements from patent publication US12612405B2, “Crystalline form of 1-(8-Bromopyrido[2,3-E][1,2,4]triazolo[4,3-a]pyrazin-4-Yl)-Nmethylazetidin-3-amine hydrogen sulfate monohydrate” (JW PHARMACEUTICAL CORPORATION, priority 2021, dated 2026).
“Also recorded” adds a separate entry of the source.

Assays:
[1] = Interconversions between the crystalline forms (stability at rt, in suspension, during drying); type: physicochemical; conditions: for stability during drying: drying process; for stability under conditions / suspensions with high water content: high amounts of water; for solid phase stability / transition at room temperature: rt, ambient conditions
Excerpt: The table below summarizes interconversions between the different forms and other issues which may be relevant to their use in pharmaceutical compositions: […]

[2] = Dynamic Vapor Sorption (DVS); type: physicochemical; conditions: for hygroscopicity classification: according to Ph. Eur.
Procedure: Instrument: DVS Advantage
Methods: About 5 mg of the substance was added into Al pan and exposed to stepwise RH changes during two consecutive cycles according to; 20-30-40-50-60-70-80-70-60-50-40-30-20-10-0-10-20-30-40-50-60-70-80-90-80-70-60-50-40-30-20-10-0/RH using open loop mode. The experiments were performed using a gas flow rate of 200 ml/min and at 25° C. The dm/dt criteria applied was 0.001 weight-%/min during a 5 minutes window, with a maximum allowed time of 150 minutes for all steps, except for the steps at 0% RH which had no criteria but were set to 6 h.

[3] = Solubility according to Ph. Eur. and USP; type: physicochemical
Excerpt: The solubility of form B according to Ph.

[4] = Solubility in common crystallization solvents; conditions: common crystallization solvents including alcohols
histamine 4 receptor = histamine 4 receptor (Homo sapiens, UniProt Q9H3N8); conditions: cited from earlier work
[5] = tested on: inflammatory cells such as mast cells and eosinophils; conditions: cited from earlier work
[6] = Thermal stability by TGA / DSC; type: physicochemical
Procedure: TGA experiments were conducted using a TGA550 instrument from TA Instruments. About 1-10 mg of sample was loaded into a ceramic pan for the measurements. The sample temperature was ramped from 25 to 500° C. at 10° C./min. Nitrogen was used as the purge gas at a flow rate of 50 mL/min.
DSC analyses were carried out on a TA Instruments Q20 Differential Scanning Calorimeter. Accurately weighed samples were placed in crimped aluminum pans. Each sample was heated under nitrogen at a rate of 10° C./minute to a maximum of 300° C. Indium metal was used as the calibration standard.

Sequence of histamine 4 receptor (Q9H3N8 whole entry): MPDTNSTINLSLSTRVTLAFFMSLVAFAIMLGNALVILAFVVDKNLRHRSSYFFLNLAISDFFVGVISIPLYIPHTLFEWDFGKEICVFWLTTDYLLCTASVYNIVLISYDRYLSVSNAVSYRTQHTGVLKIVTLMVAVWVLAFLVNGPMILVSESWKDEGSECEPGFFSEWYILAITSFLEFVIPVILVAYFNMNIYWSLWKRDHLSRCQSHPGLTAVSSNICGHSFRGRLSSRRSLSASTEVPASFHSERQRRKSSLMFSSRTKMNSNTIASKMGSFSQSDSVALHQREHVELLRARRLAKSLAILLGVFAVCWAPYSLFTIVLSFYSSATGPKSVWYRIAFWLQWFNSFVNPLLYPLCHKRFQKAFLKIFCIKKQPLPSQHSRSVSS

## CNC1CN(c2nc3ncc(Br)cc3n3cnnc23)C1.O=S(=O)(O)O [Form F, 1-(8-bromopyrido[2,3-e][1,2,4]triazolo[4,3-a]pyrazin-4-yl)-N-methylazetidin-3-amine hydrogen sulfate]
[1]; hydrogen sulfate
  stability during drying: Converts to another form during drying process. The water can; also recorded: very easily be dried off
  stability under conditions / suspensions with high water content: with high water content form F converts to form I.

## CNC1CN(c2nc3ncc(Br)cc3n3cnnc23)C1.O=S(=O)(O)O [Form A, 1-(8-bromopyrido[2,3-e][1,2,4]triazolo[4,3-a]pyrazin-4-yl)-N-methylazetidin-3-amine hydrogen sulfate]
[1]; hydrogen sulfate
  solid phase stability / transition at room temperature: that undergoes solid phase transition to form B at rt over time.

## CNC1CN(c2nc3ncc(Br)cc3n3cnnc23)C1.O=S(=O)(O)O [Form C, 1-(8-bromopyrido[2,3-e][1,2,4]triazolo[4,3-a]pyrazin-4-yl)-N-methylazetidin-3-amine hydrogen sulfate]
[2]; DVS, humidity increased to 90%
  phase transition when humidity increased to 90%: observed and partial phase transition to the non-stoichiometric
[2]; DVS
  hygroscopicity classification: is just in the range for being slightly hygroscopic. DVS
[2]; increased relative humidity
  water uptake at increased relative humidity: The anhydrate significantly takes up water at increased
[1]; liquid environment, more than 20% water
  stability in liquid environment containing more than 20% water: 20% water form C will not be stable and therefore can be

## CNC1CN(c2nc3ncc(Br)cc3n3cnnc23)C1.O=S(=O)(O)O [Form D, 1-(8-bromopyrido[2,3-e][1,2,4]triazolo[4,3-a]pyrazin-4-yl)-N-methylazetidin-3-amine hydrogen sulfate]
[1]; hydrogen sulfate
  solid phase stability / transition at room temperature: solid phase transformation to form C.
[1]; suspension formulations, hydrogen sulfate
  stability in suspension formulations: converts to forms F, I, or N depending on the conditions.

## CNC1CN(c2nc3ncc(Br)cc3n3cnnc23)C1.O.O=S(=O)(O)O [Form B, 1-(8-bromopyrido[2,3-e][1,2,4]triazolo[4,3-a]pyrazin-4-yl)-N-methylazetidin-3-amine hydrogen sulfate monohydrate]
[2]; 25° C., between 10 and 80% RH
  water absorbed (DVS): By (DVS) it was demonstrated that form B absorbs 0.2%
[2]; DVS
  hygroscopicity classification: considered non-hygroscopic according to Ph. Eur. 5. (the increase in mass of a drug substance between about 0% to 80% relative humidity is less than 0.2% by weight)
[3]; 1-4-dioxane
  solubility: insoluble
[3]; 1-propanol
  solubility: insoluble
[3]; 2-propanol
  solubility: insoluble
[3]; acetone
  solubility: insoluble
[3]; chloroform
  solubility: insoluble
[3]; dimethyl sulfoxide
  solubility: Soluble
[3]; dimethylformamide
  solubility: slightly soluble
[3]; ethanol
  solubility: insoluble
[3]; ethyl acetate
  solubility: insoluble
[3]; isopropyl acetate
  solubility: insoluble
[3]; methanol
  solubility: very slightly soluble
[3]; methyl tert-butyl ether
  solubility: insoluble
[3]; n-butyl acetate
  solubility: insoluble
[3]; tert-amyl alcohol
  solubility: insoluble
[3]; tetrahydrofuran
  solubility: insoluble
[3]; water
  solubility: sparingly soluble
[3]; xylene
  solubility: insoluble

## CNC1CN(c2nc3ncc(Br)cc3n3cnnc23)C1.O=S(=O)(O)O [Form K, 1-(8-bromopyrido[2,3-e][1,2,4]triazolo[4,3-a]pyrazin-4-yl)-N-methylazetidin-3-amine hydrogen sulfate]
[1]; hydrogen sulfate
  stability during drying: Form K converts to form C in drying processes.
  solid phase stability / transition at room temperature: Form K converts to form C at room temperature.

## CNC1CN(c2nc3ncc(Br)cc3n3cnnc23)C1.O=S(=O)(O)O [Form I, 1-(8-bromopyrido[2,3-e][1,2,4]triazolo[4,3-a]pyrazin-4-yl)-N-methylazetidin-3-amine hydrogen sulfate]
[1]; hydrogen sulfate
  stability during drying: not stable during drying at room temperature where it; also recorded: converts to form K, which then converts to form C at room; also recorded: product as it converts to form C in drying processes
[1]
  stability under conditions / suspensions with high water content: the crystal structure. The dihydrate form I is the most stable

## CNC1CN(c2nc3ncc(Br)cc3n3cnnc23)C1.O=S(=O)(O)O [hydrogen sulfate salt, 1-(8-bromopyrido[2,3-e][1,2,4]triazolo[4,3-a]pyrazin-4-yl)-N-methylazetidin-3-amine hydrogen sulfate]
[4]
  solubilities in common solvents used for crystallizations: very low solubilities

## CNC1CN(c2nc3ncc(Br)cc3n3cnnc23)C1 [1-(8-bromopyrido[2,3-e][1,2,4]triazolo[4,3-a]pyrazin-4-yl)-N-methylazetidin-3-amine]
Histamine 4 receptor
  histamine 4 receptor inhibitory effect: strong histamine 4 receptor inhibitory effect
[5]
  effect against histamine induced infiltration of inflammatory cells: suppressive effects
[4]
  solubilities in common solvents used for crystallizations: very low solubilities

## CNC1CN(c2nc3ncc(Br)cc3n3cnnc23)C1.O=S(=O)(O)O [Form M, 1-(8-bromopyrido[2,3-e][1,2,4]triazolo[4,3-a]pyrazin-4-yl)-N-methylazetidin-3-amine hydrogen sulfate]
[6]
  broad endothermic event due to water loss and breakdown of the crystal lattice: 44 °C
[6]; TGA
  temperature of weight loss (TGA curve): 50 °C
[6]; hydrogen sulfate
  thermal stability: Form M is a monohydrate but loses water and melts at very; also recorded: this low thermal stability form M is not suitable for
